The results in this text go back to patent US20110293744A1, “BENZOXAZOLE INHIBITORS OF POLY(ADP-RIBOSE)POLYMERASE” (ABBOTT LABORATORIES, priority 2009, published 2011).

This experiment addresses T1, Recombinant Human Poly(ADP-Ribose) Polymerase (PARP), PARP-1 (Homo sapiens, UniProt P09874).
T1 construct: purchased Trevigen; host or cells: E. coli
As to the kind of experiment: PARP Enzyme Inhibition Assay (PARP1, SPA/FlashPlate). It counts as biochemical. The conditions noted are these: 1 nM PARP enzyme, [3H]-NAD+, 200 nM biotinylated histone H1, 200 nM slDNA. Here is the method: Nicotinamide[2,5′,8-3H]adenine dinucleotide and strepavidin SPA beads were purchased from Amersham Biosiences. Recombinant Human Poly(ADP-Ribose) Polymerase (PARP), purified from E. coli and 6-Biotin-17-NAD^+, were purchase from Trevigen. NAD^+, histone, aminobenzamide, 3-amino benzamide and Calf Thymus DNA (dcDNA) were purchased from Sigma. Stem loop oligonucleotide containing MCAT sequence was obtained from Qiagen. The oligos were dissoloved to 1 mM in annealing buffer containing 10 mM Tris HCl pH 7.5, 1 mM EDTA, and 50 mM NaCl, incubated for 5 minutes at 95° C., and annealed at 45° C. for 45 minutes. Histone H1 (95% electrophoretically pure) was purchased from Roche. Biotinylated histone H1 was prepared by treating the protein with Sulfo-NHS-LC-Biotin from Pierce. The biotinylation reaction was conducted by slowly and intermittently adding 3 equivalents of 10 mM Sulfo-NHS-LC-Biotin to 100 μM Histone H1 in phosphate-buffered saline, pH 7.5, at 4° C. with gentle vortexing over 1 minute followed by subsequent 4° C. incubation for 1 hour. Streptavidin coated (FlashPlate Plus) microplates were purchased from Perkin Elmer.
PARP1 assay was conducted in PARP assay buffer containing 50 mM Tris pH 8.0, 1 mM DTT, 4 mM MgCl2. PARP reactions contained […] [^3H]-NAD^+ (1.6 uCi/mmol), 200 nM biotinylated histone H1, 200 nM slDNA, and 1 nM PARP enzyme. Auto reactions utilizing SPA bead-based detection were carried out in 100 μL volumes in white 96 well plates. Reactions were initiated by adding 50 μl of 2×NAD^+ substrate mixture to 50 μL of 2× enzyme mixture containing PARP and DNA. These reactions were terminated by the addition of 150 μL of 1.5 mM benzamide (˜1000-fold over its IC50). 170 μL of the stopped reaction mixtures were transferred to streptavidin Flash Plates, incubated for 1 hour, and counted using a TopCount microplate scintillation counter.

Structures are written as SMILES. pKi: −log10 of the molar value.

T1 sequence (P09874 whole entry): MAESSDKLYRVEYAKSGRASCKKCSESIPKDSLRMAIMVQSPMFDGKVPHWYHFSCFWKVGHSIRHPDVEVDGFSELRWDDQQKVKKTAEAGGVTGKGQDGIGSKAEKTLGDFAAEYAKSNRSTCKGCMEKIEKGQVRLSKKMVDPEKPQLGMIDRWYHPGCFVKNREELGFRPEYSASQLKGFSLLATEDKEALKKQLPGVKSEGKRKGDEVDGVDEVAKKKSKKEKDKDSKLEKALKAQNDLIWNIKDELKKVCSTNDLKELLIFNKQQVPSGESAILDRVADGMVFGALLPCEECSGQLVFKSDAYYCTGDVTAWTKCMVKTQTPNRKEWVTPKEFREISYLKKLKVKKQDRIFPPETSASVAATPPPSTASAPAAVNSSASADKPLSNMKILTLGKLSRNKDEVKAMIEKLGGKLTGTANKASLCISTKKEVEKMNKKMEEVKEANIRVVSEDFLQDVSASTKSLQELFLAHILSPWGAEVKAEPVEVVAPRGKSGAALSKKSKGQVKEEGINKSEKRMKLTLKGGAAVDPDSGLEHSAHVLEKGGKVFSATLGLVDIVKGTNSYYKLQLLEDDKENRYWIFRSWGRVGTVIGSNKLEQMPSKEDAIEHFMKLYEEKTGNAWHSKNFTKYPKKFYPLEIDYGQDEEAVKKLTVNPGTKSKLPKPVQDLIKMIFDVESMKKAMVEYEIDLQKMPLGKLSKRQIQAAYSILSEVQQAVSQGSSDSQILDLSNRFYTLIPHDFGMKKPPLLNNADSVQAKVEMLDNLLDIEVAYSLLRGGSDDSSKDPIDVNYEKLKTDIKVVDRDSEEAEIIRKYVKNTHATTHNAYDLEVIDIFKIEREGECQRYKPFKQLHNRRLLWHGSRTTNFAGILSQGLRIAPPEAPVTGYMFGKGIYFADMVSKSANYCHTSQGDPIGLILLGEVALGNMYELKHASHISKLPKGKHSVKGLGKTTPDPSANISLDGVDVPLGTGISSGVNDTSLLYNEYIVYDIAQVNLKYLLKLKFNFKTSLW

As a reminder, the pKi is −log10 of the Ki, conventionally taken in molar units. For the compound `NC(=O)c1cccc2oc(-c3ccc(Br)cc3)nc12` [Example 1, 2-(4-bromophenyl)-1,3-benzoxazole-4-carboxamide], the pKi is 6.85.

`NC(=O)c1cccc2oc(-c3ccc(-c4ccccc4)cc3)nc12` [Example 2, 2-(1,1′-biphenyl-4-yl)-1,3-benzoxazole-4-carboxamide]: the pKi was 5.04.

Consider `NC(=O)c1cccc2oc(-c3ccc(-c4cccnc4)cc3)nc12` [Example 3, 2-(4-pyridin-3-ylphenyl)-1,3-benzoxazole-4-carboxamide], for which the pKi is 6.51.

On to `NC(=O)c1cccc2nc(-c3ccc(Br)cc3)oc12` [Example 4, 2-(4-bromophenyl)-1,3-benzoxazole-7-carboxamide], for which the pKi was 7.32.

Take `NC(=O)c1cccc2nc(-c3ccc(-c4ccccc4)cc3)oc12` [Example 5, 2-(1,1′-biphenyl-4-yl)-1,3-benzoxazole-7-carboxamide]: the pKi is 6.71.

As for `NC(=O)c1cccc2nc(-c3ccc(-c4ccc5c(c4)OCO5)cc3)oc12` [Example 6, 2-[4-(1,3-benzodioxol-5-yl)phenyl]-1,3-benzoxazole-7-carboxamide], the pKi was 6.08.

Regarding `NC(=O)c1cccc2nc(-c3ccc(-c4cc[nH]n4)cc3)oc12` [Example 7, 2-[4-(1H-pyrazol-3-yl)phenyl]-1,3-benzoxazole-7-carboxamide], the pKi was 6.96.

Turning to `NC(=O)c1cccc2nc(-c3ccc(-c4cccc(N)c4)cc3)oc12` [Example 8, 2-(3′-amino-1,1′-biphenyl-4-yl)-1,3-benzoxazole-7-carboxamide], the pKi is 5.49.

For the compound `NC(=O)c1cccc2nc(-c3ccc(-c4cccnc4)cc3)oc12` [Example 9, 2-(4-pyridin-3-ylphenyl)-1,3-benzoxazole-7-carboxamide], the pKi is 7.20.

For the compound `NC(=O)c1cccc2nc(-c3ccc(-c4ccncc4)cc3)oc12` [Example 10, 2-(4-pyridin-4-ylphenyl)-1,3-benzoxazole-7-carboxamide], the pKi is 5.79.

Consider `NC(=O)c1cccc2nc(-c3ccc(-c4ccccn4)cc3)oc12` [Example 11, 2-(4-pyridin-2-ylphenyl)-1,3-benzoxazole-7-carboxamide], for which the pKi was 7.96.

`NC(=O)c1cccc2oc(-c3ccccc3)nc12` [Example 12, 2-phenyl-1,3-benzoxazole-4-carboxamide]: the pKi was 6.30.
